Laboratory results as given in patent US8558011B2, “Cold menthol receptor-1 antagonists” (Janssen Pharmaceutica, NV, priority 2010, dated 2013).
Where “and” joins values, the source holds several entries; their conditions need not be identical. Equal values may be shown once.

Target: T1, canine TRPM8 (Canis lupus familiaris, UniProt Q1A7N1)
T1 construct: expressed in transfected cells
Experiment: In Vitro Canine TRPM8 Functional Assay (Ca2+-sensitive fluorescent dye, icilin activation, FLIPR/FDSS)
Assay type: cell-based
Conditions: HEK293 cells stably expressing canine TRPM8, icilin activation; for % I (1 μM): compound at 1 μM; for IC50: eight-point dose-response; for % I (0.5 μM): compound at 0.5 μM
Experimental: The functional activity of compounds of Formula (I) was determined by measuring changes in intracellular calcium concentration using a Ca^2+-sensitive fluorescent dye. The changes in fluorescent signal were monitored by a fluorescence plate reader, either a FLIPR™ (Molecular Devices) or FDSS (Hamamatsu).
HEK293 cells stably expressing canine TRPM8 were routinely grown as monolayers in Dulbecco's minimum essential medium supplemented with 10% FBS, 1 mM L-glutamine, 100 units/mL penicillin, 100 ug/mL streptomycin and 400 μg/mL G418. Cells were maintained in 5% CO2 at 37° C. At 24 hrs prior to assay, cells were seeded in clear-base poly-D-lysine coated 384-well plates (BD Biosciences, NJ, USA) at a density of 5,000 cells per well in culture medium and grown overnight in 5% CO2 at 37° C. On assay day, growth media was removed and cells were loaded with Calcium 3 Dye (Molecular Devices) for 35 min at 37° C., under 5% CO2 and then for 25 min at room temperature and atmosphere. Subsequently, cells were tested for agonist-induced increases in intracellular Ca^2+ levels using FLIPR™ or FDSS. Cells were challenged with a compound of Formula (I) (at varying concentrations) and intracellular Ca^2+ was measured for 5 min prior to the addition of icilin to all wells to achieve a final concentration which produces approximately an 80% maximal response.
Basal FI was subtracted prior to normalizing data to percent of maximal response. Curves were generated using the average of quadruplicate wells for each data point, were analyzed using nonlinear regression of either sigmoidal dose response or sigmoidal dose response (variable slope). Finally, the EC50 and IC50 values were calculated with the best-fit dose curve determined by GraphPad Prism.

T1 sequence (Q1A7N1 1-1104): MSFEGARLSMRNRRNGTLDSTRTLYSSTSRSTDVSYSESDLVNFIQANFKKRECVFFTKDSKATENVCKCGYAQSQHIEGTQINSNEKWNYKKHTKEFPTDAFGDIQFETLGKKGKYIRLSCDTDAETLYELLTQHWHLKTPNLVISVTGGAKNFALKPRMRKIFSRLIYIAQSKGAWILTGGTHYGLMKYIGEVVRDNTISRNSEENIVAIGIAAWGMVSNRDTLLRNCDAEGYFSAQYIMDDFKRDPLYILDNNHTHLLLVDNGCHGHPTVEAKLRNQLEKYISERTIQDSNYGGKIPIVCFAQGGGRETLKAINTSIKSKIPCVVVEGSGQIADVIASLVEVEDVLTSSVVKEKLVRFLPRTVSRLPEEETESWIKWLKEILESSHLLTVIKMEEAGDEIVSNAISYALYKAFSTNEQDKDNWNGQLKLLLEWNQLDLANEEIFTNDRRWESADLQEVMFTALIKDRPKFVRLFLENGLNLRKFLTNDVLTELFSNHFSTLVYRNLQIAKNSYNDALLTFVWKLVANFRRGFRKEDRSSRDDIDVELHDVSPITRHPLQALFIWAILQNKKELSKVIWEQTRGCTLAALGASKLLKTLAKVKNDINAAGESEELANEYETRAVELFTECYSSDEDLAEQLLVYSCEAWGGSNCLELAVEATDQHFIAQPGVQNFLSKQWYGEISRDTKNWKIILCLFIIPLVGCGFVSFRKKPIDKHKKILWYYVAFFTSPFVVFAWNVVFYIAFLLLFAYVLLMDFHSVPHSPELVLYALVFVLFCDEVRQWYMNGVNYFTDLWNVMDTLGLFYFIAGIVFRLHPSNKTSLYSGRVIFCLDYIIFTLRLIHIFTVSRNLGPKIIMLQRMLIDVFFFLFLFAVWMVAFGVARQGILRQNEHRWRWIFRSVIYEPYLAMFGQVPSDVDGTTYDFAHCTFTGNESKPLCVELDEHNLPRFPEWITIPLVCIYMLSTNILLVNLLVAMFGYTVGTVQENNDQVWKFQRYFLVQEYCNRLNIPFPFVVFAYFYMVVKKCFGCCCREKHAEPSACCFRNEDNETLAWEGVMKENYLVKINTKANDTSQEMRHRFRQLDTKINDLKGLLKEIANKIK

Structure (SMILES)	% I (1 μM) [%]	IC50	% I (0.5 μM)
CCOP(=O)(Cc1cc2ccccc2s1)OCc1ccccc1F (stereo not shown) [Cpd 109, Benzo[b]thiophen-2-ylmethyl-phosphonic acid ethyl ester 2-fluoro-benzyl ester]	17	–	–
CCOP(=O)(OCC)C(Cc1ccccc1Cl)c1sc2ccccc2c1C (racemic) [Cpd 48]	100	169 nM	–
CCOP(=O)(OCC)C(Cc1cccc(C(F)(F)F)c1F)c1sc2ccccc2c1Cl (stereo not shown) [Cpd 281]	–	131 nM	102%
CC(C)OP(=O)(OC(C)C)C(Cc1cc(C(F)(F)F)ccc1F)c1sc2ccccc2c1Cl (stereo not shown) [Cpd 172]	–	105 nM	104%
CC(C)OP(=O)(OC(C)C)C(Cc1ccc(Cl)c(C(F)(F)F)c1)c1sc2ccccc2c1Cl (stereo not shown) [Cpd 167]	–	97 nM	104%
CCOP(=O)(OCC)C(Cc1cccc(OC)c1F)c1sc2ccccc2c1Br (stereo not shown) [Cpd 162]	–	32 nM	103%
CCOP(=O)(OCC)C(Cc1ccc(C(F)(F)F)cc1F)c1sc2ccccc2c1Br (stereo not shown) [Cpd 150]	–	90 nM	103%
CC(C)OP(=O)(OC(C)C)C(Cc1ccccc1C(F)(F)F)c1sc2ccccc2c1Cl (stereo not shown) [Cpd 173]	–	140 nM	103%
CC(C)OP(=O)(OC(C)C)C(Cc1cc(Cl)ccc1F)c1sc2ccccc2c1Br (stereo not shown) [Cpd 308]	–	17 nM	103%
CCOP(=O)(OCC)C(Cc1cc(O)c(Cl)cc1F)c1sc2ccccc2c1Br (stereo not shown) [Cpd 231]	–	122 nM	98%
CCOP(=O)(OCC)C(Cc1cccc(N)c1)c1sc2ccccc2c1Br (stereo not shown) [Cpd 318, [2-(3-Amino-phenyl)-1-(3-bromo-benzo[b]thiophen-2-yl)-ethyl]-phosphonic acid diethyl ester]	–	–	100%
CCOP(=O)(OCC)C(Cc1ccc(F)c(F)c1)c1oc2cccc(F)c2c1Br (stereo not shown) [Cpd 206]	100	98 nM	–
CCOP(=O)(OCC)C(Cc1cc(Cl)ccc1Cl)c1sc2ccccc2c1C (racemic) [Cpd 47]	100	167 nM	–
CCOP(=O)(OCC)C(Cc1ccc(F)c(F)c1)c1sc2c(F)cccc2c1C (stereo not shown) [Cpd 8, [2-(3,4-Difluoro-phenyl)-1-(7-fluoro-3-methyl-benzo[b-]thiophene-2-yl)-ethyl]-phosphonic acid diethyl ester]	100	–	–
CC(C)OP(=O)(OC(C)C)C(Cc1cccc(C(F)(F)F)c1F)c1sc2ccccc2c1Cl (stereo not shown) [Cpd 168]	–	76 nM	104%
CC(C)OP(=O)(OC(C)C)C(Cc1ccc(C(F)(F)F)cc1F)c1sc2ccccc2c1Br (stereo not shown) [Cpd 289]	–	51 nM	103%
CCOP(=O)(OCC)C(Cc1cccc(Cl)c1F)c1sc2ccccc2c1Br (stereo not shown) [Cpd 143]	–	67 nM	101%
CC(C)OP(=O)(OC(C)C)C(Cc1cc(Cl)ccc1F)c1sc2ccccc2c1Cl (stereo not shown) [Cpd 303]	–	49 nM	102%
CCOP(=O)(OCC)C(Cc1ccc(OC(F)(F)F)c(Cl)c1)c1sc2ccccc2c1Br (stereo not shown) [Cpd 149]	–	60 nM	103%
CCOP(=O)(OCC)C(Cc1ccc(F)c(C(F)(F)F)c1)c1sc2cccc(F)c2c1Br (stereo not shown) [Cpd 223]	–	52 nM	102%
CC(C)OP(=O)(OC(C)C)C(Cc1ccc(F)c(F)c1)c1oc2cccc(F)c2c1Br (stereo not shown) [Cpd 205]	101	50 nM	–
CCOP(=O)(OCC)C(Cc1ccc(F)cc1)c1sc2ccccc2c1Cl (stereo not shown) [Cpd 284]	–	79 nM and 65 nM	103% and 102%
CCOP(=O)(OCC)C(Cc1cccc(Cl)c1)c1sc2ccccc2c1Cl (stereo not shown) [Cpd 290]	–	115 nM	103%
CCOP(=O)(OCC)C(Cc1ccc(C(F)(F)F)cc1F)c1sc2ccccc2c1Cl (stereo not shown) [Cpd 291]	–	156 nM	103%
CCOP(=O)(OCC)C(Cc1cc(C(F)(F)F)ccc1Cl)c1sc2ccccc2c1Br (stereo not shown) [Cpd 148]	–	172 nM	103%
CC(C)OP(=O)(OC(C)C)C(Cc1ccc(Cl)c(F)c1)c1sc2ccccc2c1Cl (stereo not shown) [Cpd 302]	–	79 nM	103%
CCOP(=O)(OCC)C(Cc1ccc(OC)c(C(F)(F)F)c1)c1sc2ccccc2c1Br (stereo not shown) [Cpd 152]	–	54 nM and 50 nM	102% and 92%

Structure (SMILES)	% I (1 μM) [%]	IC50	% I (0.5 μM)
CCOP(=O)(OCC)C(Cc1cccc(Br)c1)c1sc2ccccc2c1Br (stereo not shown) [Cpd 295]	–	31 nM and 16 nM	102% and 103%
CCOP(=O)(OCC)C(Cc1cccc(F)c1F)c1sc2ccccc2c1C (racemic) [Cpd 10]	100	43 nM	–
CCOP(=O)(OCC)C(C)(Cc1ccc(F)c(F)c1)c1sc2ccccc2c1C (stereo not shown) [Cpd 79, [2-(3,4-Difluoro-phenyl)-1-methyl-1-(3-methyl-benzo[b]-thiophen-2-yl)-ethyl]-phosphonic acid diethyl ester]	88	–	–
CCOP(=O)(Cc1cc2ccccc2s1)OCc1c(Cl)cccc1Cl (stereo not shown) [Cpd 94, Benzo[b]thiophen-2-ylmethyl-phosphonic acid 2,6-dichloro-benzyl ester ethyl ester]	79	–	–
CC(C)CCOP(=O)(OCCC(C)C)C(Cc1ccc(F)c(F)c1)c1sc2ccccc2c1Br (stereo not shown) [Cpd 211]	–	95 nM	97%
CC(C)OP(=O)(OC(C)C)C(Cc1ccc(F)cc1)c1sc2ccccc2c1Cl (stereo not shown) [Cpd 306]	–	–	101% and 102%
CC(C)OP(=O)(OC(C)C)C(Cc1ccc(F)c(F)c1)c1sc2ccccc2c1C(C)C (racemic) [Cpd 19]	100	68 nM	–
CCOP(=O)(OCC)C(Cc1cc(F)cc(F)c1Cl)c1sc2ccccc2c1C (racemic) [Cpd 28]	100	110 nM	–
CC(C)OP(=O)(OC(C)C)C(Cc1ccc(F)c(C(F)(F)F)c1)c1sc2cccc(F)c2c1Br (stereo not shown) [Cpd 222]	–	33 nM	103%
CCOP(=O)(OCC)C(Cc1cc(C(F)(F)F)ccc1F)c1sc2ccccc2c1Br (stereo not shown) [Cpd 146]	–	100 nM	103%
CC(C)OP(=O)(OC(C)C)C(Cc1ccc(F)c(F)c1)c1sc2ccccc2c1C1CCCC1 (racemic) [Cpd 38]	99	140 nM	–
CC(C)OP(=O)(OC(C)C)C(Cc1ccc(F)c(Cl)c1)c1sc2ccccc2c1Br (stereo not shown) [Cpd 248]	–	21 nM	104%
CCOP(=O)(OCC)C(Cc1ccc(C(F)(F)F)cc1)c1sc2ccccc2c1Br (stereo not shown) [Cpd 154]	–	27 nM	103%
CC(C)OP(=O)(OC(C)C)C(Cc1c(F)c(F)c(O)c(F)c1F)c1sc2ccccc2c1Br (stereo not shown) [Cpd 229]	–	156 nM	95%
CCOP(=O)(OCC)C(Cc1ccc(F)c(F)c1)c1sc2ccc(F)cc2c1C (stereo not shown) [Cpd 45, [2-(3,4-Difluoro-phenyl)-1-(5-fluoro-3-methyl-benzo[b]thiophene-2-yl)-ethyl]-phosphonic acid diethyl ester]	100	–	–
CCOP(=O)(OCC)C(Cc1cccc(C(F)(F)F)c1Cl)c1sc2ccccc2c1Br (stereo not shown) [Cpd 151]	–	120 nM	103%
CCOP(=O)(OCC)C(Cc1ccc(C(F)(F)F)cc1)c1sc2ccccc2c1Cl (stereo not shown) [Cpd 285]	–	125 nM	103%
CCOP(=O)(OCC)C(Cc1ccc(F)c(F)c1)c1sc2cc(F)ccc2c1C (stereo not shown) [Cpd 16, [2-(3,4-Difluoro-phenyl)-1-(6-fluoro-3-methyl-benzo[b]-thiophene-2-yl)-ethyl]-phosphonic acid diethyl ester]	100	–	–
CCC(C)P(=O)(C(C)CC)C(OCc1ccc(F)c(F)c1)c1sc2ccccc2c1Br (stereo not shown) [Cpd 204]	100	92 nM	–
CCOP(=O)(OCC)C(Cc1ccc(F)cc1Cl)c1sc2ccccc2c1C (racemic) [Cpd 27]	99	110 nM	–
CC(C)OP(=O)(OC(C)C)C(Cc1cccc(C(F)(F)F)c1)c1sc2ccccc2c1Cl (stereo not shown) [Cpd 170]	–	73 nM	103%
CCOP(=O)(OCC)C(Cc1ccccc1C(F)(F)F)c1sc2ccccc2c1Cl (stereo not shown) [Cpd 279]	–	291 nM	97%
CC(C)OP(=O)(OC(C)C)C(Cc1cc(F)cc(C(F)(F)F)c1)c1sc2ccccc2c1Cl (stereo not shown) [Cpd 169]	–	96 nM	104%
CCOP(=O)(OCC)C(Cc1cccc(Cl)c1F)c1sc2ccccc2c1C (racemic) [Cpd 23]	100	96 nM	–
CCOP(=O)(OCC)C(Cc1ccc(OC)c(F)c1)c1sc2ccccc2c1Br (stereo not shown) [Cpd 158]	–	59 nM	101%
CC(C)OP(=O)(OC(C)C)C(Cc1ccc(SC(F)(F)F)cc1)c1sc2ccccc2c1Cl (stereo not shown) [Cpd 304]	–	28 nM	102%
CCOP(=O)(OCC)C(Cc1cccc(C(F)(F)F)c1)c1cc2ccccc2s1 (racemic) [Cpd 39]	100	141 nM	–
